Data from publication PMC6591251, “Discovery of potent necroptosis inhibitors targeting RIPK1 kinase activity for the treatment of inflammatory disorder and cancer metastasis” (Cell Death & Disease, 2019).

Assays:
Experiment in all cases: RBC kinase panel
Format in all cases: biochemical
Conditions in all cases: ATP 10 μM, Data1, Data2
MRCKa/CDC42BPA = target: T1, MRCKa/CDC42BPA (Homo sapiens, UniProt Q5VT25)
T1 construct: purchased Reaction Biology Corporation
Procedure: (§1) PK68 was tested at 1 μM in duplicate against a panel of 369 human kinases at Reaction Biology Corporation. Results are viewed in the human kinome phylogenetic tree.
(§2) ^a Compound PK68 was tested at 1 μM in duplicate against 369 kinases using the RBC kinase panel service of Reaction Biology Corporation. All the ATP concentrations used were 10 μM. […] Full protocol details are available at http://www.reactionbiology.com.

MARK4 = target: T2, MARK4 (Homo sapiens, UniProt Q96L34)
T2 construct: purchased Reaction Biology Corporation
Procedure: as §1, §2

TGFBR2 = target: T3, TGFBR2 (Homo sapiens, UniProt P37173)
T3 construct: purchased Reaction Biology Corporation
Procedure: as §1, §2

DMPK2 = target: T4, DMPK2 (Homo sapiens, UniProt Q6DT37)
T4 construct: purchased Reaction Biology Corporation
Procedure: as §1, §2

PKCeta = target: T5, PKCeta (Homo sapiens, UniProt P24723)
T5 construct: purchased Reaction Biology Corporation
Procedure: as §1, §2

CLK4 = target: T6, CLK4 (Homo sapiens, UniProt Q9HAZ1)
T6 construct: purchased Reaction Biology Corporation
Procedure: as §1, §2

ALK3/BMPR1A = target: T7, ALK3/BMPR1A (Homo sapiens, UniProt P36894)
T7 construct: purchased Reaction Biology Corporation
Procedure: as §1, §2

CHK1 = target: T8, CHK1 (Homo sapiens, UniProt O14757)
T8 construct: purchased Reaction Biology Corporation
Procedure: as §1, §2

GRK2 = target: T9, GRK2 (Homo sapiens, UniProt P25098)
T9 construct: purchased Reaction Biology Corporation
Procedure: as §1, §2

WNK3 = target: T10, WNK3 (Homo sapiens, UniProt Q9BYP7)
T10 construct: purchased Reaction Biology Corporation
Procedure: as §1, §2

SBK1 = target: T11, SBK1 (Homo sapiens, UniProt Q52WX2)
T11 construct: purchased Reaction Biology Corporation
Procedure: as §1, §2

SIK2 = target: T12, SIK2 (Homo sapiens, UniProt Q9H0K1)
T12 construct: purchased Reaction Biology Corporation
Procedure: as §1, §2

BRK = target: T13, BRK (Homo sapiens, UniProt Q13882)
T13 construct: purchased Reaction Biology Corporation
Procedure: as §1, §2

CAMK2g = target: T14, CAMK2g (Homo sapiens, UniProt Q13555)
T14 construct: purchased Reaction Biology Corporation
Procedure: as §1, §2

CAMK4 = target: T15, CAMK4 (Homo sapiens, UniProt Q16566)
T15 construct: purchased Reaction Biology Corporation
Procedure: as §1, §2

EPHA5 = target: T16, EPHA5 (Homo sapiens, UniProt P54756)
T16 construct: purchased Reaction Biology Corporation
Procedure: as §1, §2

TAK1 = target: T17, TAK1 (Homo sapiens, UniProt O43318)
T17 construct: purchased Reaction Biology Corporation
Procedure: as §1, §2

CAMK1d = target: T18, CAMK1d (Homo sapiens, UniProt Q8IU85)
T18 construct: purchased Reaction Biology Corporation
Procedure: as §1, §2

ALK6/BMPR1B = target: T19, ALK6/BMPR1B (Homo sapiens, UniProt O00238)
T19 construct: purchased Reaction Biology Corporation
Procedure: as §1, §2

PIM3 = target: T20, PIM3 (Homo sapiens, UniProt Q86V86)
T20 construct: purchased Reaction Biology Corporation
Procedure: as §1, §2

CAMK1b = target: T21, CAMK1b (Homo sapiens, UniProt Q6P2M8)
T21 construct: purchased Reaction Biology Corporation
Procedure: as §1, §2

PAK5 = target: T22, PAK5 (Homo sapiens, UniProt Q9P286)
T22 construct: purchased Reaction Biology Corporation
Procedure: as §1, §2

FGFR3 = target: T23, FGFR3 (Homo sapiens, UniProt P22607)
T23 construct: purchased Reaction Biology Corporation
Procedure: as §1, §2

NEK9 = target: T24, NEK9 (Homo sapiens, UniProt Q8TD19)
T24 construct: purchased Reaction Biology Corporation
Procedure: as §1, §2

P38b/MAPK11 = target: T25, P38b/MAPK11 (Homo sapiens, UniProt Q15759)
T25 construct: purchased Reaction Biology Corporation
Procedure: as §1, §2

CAMKK1 = target: T26, CAMKK1 (Homo sapiens, UniProt Q8N5S9)
T26 construct: purchased Reaction Biology Corporation
Procedure: as §1, §2

KHS/MAP4K5 = target: T27, KHS/MAP4K5 (Homo sapiens, UniProt Q9Y4K4)
T27 construct: purchased Reaction Biology Corporation
Procedure: as §1, §2

VRK2 = target: T28, VRK2 (Homo sapiens, UniProt Q86Y07)
T28 construct: purchased Reaction Biology Corporation
Procedure: as §1, §2

PASK = target: T29, PASK (Homo sapiens, UniProt Q96RG2)
T29 construct: purchased Reaction Biology Corporation
Procedure: as §1, §2

IKKa/CHUK = target: T30, IKKa/CHUK (Homo sapiens, UniProt O15111)
T30 construct: purchased Reaction Biology Corporation
Procedure: as §1, §2

PKCtheta = target: T31, PKCtheta (Homo sapiens, UniProt Q04759)
T31 construct: purchased Reaction Biology Corporation
Procedure: as §1, §2

ERN1/IRE1 = target: T32, ERN1/IRE1 (Homo sapiens, UniProt O75460)
T32 construct: purchased Reaction Biology Corporation
Procedure: as §1, §2

EPHB3 = target: T33, EPHB3 (Homo sapiens, UniProt P54753)
T33 construct: purchased Reaction Biology Corporation
Procedure: as §1, §2

T23 sequence (P22607 23-806): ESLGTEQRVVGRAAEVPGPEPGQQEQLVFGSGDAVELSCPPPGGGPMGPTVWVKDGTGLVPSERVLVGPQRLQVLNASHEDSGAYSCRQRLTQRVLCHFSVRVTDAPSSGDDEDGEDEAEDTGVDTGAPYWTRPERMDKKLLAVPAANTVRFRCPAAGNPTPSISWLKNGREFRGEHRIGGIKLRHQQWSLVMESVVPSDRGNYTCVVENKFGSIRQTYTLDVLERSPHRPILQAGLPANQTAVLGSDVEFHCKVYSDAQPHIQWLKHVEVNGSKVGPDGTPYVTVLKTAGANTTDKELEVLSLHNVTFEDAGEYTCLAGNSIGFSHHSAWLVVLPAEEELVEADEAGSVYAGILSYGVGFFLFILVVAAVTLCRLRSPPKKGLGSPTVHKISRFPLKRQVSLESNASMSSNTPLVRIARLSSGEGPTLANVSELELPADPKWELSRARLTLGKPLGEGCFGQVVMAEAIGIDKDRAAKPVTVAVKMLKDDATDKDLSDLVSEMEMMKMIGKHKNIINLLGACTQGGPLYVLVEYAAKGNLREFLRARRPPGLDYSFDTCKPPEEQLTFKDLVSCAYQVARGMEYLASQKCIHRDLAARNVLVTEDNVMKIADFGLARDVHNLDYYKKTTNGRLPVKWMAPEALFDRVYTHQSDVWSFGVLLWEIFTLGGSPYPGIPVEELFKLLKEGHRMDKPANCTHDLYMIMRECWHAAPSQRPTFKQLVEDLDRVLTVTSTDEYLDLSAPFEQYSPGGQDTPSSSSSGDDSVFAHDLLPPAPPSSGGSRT
T7 sequence (P36894 24-532): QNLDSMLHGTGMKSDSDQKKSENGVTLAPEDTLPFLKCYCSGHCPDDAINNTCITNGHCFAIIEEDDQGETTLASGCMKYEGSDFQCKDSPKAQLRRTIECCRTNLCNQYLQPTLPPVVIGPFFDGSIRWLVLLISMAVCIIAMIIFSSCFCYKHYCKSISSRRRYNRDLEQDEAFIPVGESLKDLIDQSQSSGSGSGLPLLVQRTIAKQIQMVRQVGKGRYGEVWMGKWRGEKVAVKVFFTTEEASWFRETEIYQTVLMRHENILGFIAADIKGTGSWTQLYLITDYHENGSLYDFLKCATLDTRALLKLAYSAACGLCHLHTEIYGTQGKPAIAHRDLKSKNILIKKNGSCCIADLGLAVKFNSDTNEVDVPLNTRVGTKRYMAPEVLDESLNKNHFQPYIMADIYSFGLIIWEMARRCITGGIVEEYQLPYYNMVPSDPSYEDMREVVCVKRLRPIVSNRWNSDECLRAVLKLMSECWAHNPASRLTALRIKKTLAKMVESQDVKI
T32 sequence (O75460 19-977): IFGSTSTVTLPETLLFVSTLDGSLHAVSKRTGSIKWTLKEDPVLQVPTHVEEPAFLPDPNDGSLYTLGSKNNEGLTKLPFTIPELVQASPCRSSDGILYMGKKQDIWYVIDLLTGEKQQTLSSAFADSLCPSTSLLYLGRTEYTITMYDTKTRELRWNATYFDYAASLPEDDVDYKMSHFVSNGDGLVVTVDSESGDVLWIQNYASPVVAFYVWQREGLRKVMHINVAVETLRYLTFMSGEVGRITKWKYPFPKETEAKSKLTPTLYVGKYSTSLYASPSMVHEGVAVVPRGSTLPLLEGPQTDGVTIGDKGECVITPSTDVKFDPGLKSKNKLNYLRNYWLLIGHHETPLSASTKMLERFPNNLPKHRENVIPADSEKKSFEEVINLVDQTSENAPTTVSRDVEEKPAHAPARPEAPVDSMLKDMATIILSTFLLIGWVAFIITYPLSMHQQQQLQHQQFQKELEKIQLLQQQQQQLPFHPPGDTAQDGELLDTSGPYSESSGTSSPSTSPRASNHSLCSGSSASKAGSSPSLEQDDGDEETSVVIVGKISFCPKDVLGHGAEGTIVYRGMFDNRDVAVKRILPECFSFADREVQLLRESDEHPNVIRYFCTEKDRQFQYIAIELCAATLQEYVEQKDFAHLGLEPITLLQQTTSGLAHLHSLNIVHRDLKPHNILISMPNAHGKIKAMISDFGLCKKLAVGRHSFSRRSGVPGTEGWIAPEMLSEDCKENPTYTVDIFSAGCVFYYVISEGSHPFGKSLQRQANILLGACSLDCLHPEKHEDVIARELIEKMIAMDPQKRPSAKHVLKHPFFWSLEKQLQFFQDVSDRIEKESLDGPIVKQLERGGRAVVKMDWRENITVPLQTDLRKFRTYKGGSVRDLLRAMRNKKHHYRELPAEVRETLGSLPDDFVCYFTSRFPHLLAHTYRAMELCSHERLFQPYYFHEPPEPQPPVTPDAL
T4 sequence (Q6DT37 whole entry): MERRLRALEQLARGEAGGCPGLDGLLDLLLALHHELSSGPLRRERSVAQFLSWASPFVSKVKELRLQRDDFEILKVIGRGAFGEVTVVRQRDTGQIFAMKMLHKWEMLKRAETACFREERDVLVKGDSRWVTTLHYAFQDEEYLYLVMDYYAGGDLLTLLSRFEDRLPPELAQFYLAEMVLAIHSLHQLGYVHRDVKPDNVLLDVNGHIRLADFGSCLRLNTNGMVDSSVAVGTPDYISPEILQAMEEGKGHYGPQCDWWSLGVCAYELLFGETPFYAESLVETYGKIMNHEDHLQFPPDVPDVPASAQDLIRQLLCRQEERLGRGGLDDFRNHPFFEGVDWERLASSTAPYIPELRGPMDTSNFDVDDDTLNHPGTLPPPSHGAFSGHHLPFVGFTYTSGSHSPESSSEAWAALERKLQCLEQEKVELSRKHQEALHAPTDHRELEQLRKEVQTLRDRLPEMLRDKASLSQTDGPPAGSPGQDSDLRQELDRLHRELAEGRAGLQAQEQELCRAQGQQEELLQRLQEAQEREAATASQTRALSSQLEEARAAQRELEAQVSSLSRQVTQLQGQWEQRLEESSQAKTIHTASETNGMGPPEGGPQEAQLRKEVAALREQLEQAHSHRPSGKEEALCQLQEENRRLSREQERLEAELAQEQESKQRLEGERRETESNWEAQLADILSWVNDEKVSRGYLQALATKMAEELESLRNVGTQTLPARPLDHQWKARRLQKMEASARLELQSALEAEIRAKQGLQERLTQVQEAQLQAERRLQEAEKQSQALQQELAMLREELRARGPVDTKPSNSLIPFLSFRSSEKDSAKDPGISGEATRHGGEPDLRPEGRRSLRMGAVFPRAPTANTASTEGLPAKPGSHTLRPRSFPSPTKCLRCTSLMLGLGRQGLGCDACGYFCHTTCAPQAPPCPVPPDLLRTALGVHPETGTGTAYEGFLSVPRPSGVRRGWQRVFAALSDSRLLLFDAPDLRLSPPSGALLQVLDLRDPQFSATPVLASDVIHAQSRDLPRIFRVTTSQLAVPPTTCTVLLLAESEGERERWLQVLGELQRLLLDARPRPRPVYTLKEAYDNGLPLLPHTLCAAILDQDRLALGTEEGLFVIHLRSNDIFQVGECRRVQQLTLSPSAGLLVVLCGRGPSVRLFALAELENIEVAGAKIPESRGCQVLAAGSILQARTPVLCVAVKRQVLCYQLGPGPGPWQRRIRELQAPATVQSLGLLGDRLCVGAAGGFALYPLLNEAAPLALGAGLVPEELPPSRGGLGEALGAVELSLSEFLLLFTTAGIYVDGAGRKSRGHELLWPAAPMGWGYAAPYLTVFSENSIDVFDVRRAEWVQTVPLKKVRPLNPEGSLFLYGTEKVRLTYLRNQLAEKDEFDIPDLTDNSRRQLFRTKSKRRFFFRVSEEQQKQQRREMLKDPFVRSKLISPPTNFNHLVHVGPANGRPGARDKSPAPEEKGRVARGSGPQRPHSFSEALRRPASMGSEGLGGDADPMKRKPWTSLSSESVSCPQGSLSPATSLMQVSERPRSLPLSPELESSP
T2 sequence (Q96L34 whole entry): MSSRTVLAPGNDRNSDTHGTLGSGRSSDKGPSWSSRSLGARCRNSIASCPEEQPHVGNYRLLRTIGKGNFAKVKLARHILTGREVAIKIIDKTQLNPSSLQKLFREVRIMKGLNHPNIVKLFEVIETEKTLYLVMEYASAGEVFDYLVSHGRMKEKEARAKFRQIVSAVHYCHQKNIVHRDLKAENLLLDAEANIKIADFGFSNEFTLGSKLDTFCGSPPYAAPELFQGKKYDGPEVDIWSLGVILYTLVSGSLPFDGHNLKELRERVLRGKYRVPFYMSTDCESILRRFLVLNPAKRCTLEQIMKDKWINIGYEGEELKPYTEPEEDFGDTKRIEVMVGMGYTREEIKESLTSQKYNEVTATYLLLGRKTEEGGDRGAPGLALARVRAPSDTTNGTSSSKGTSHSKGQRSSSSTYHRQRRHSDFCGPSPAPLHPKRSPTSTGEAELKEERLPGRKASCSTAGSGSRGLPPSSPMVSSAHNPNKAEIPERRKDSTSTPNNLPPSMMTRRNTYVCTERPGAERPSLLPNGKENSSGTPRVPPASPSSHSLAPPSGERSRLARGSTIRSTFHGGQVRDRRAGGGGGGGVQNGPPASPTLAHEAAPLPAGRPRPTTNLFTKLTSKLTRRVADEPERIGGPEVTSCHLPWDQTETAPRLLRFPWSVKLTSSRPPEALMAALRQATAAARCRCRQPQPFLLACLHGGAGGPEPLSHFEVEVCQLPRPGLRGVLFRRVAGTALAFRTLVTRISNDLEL
T15 sequence (Q16566 whole entry): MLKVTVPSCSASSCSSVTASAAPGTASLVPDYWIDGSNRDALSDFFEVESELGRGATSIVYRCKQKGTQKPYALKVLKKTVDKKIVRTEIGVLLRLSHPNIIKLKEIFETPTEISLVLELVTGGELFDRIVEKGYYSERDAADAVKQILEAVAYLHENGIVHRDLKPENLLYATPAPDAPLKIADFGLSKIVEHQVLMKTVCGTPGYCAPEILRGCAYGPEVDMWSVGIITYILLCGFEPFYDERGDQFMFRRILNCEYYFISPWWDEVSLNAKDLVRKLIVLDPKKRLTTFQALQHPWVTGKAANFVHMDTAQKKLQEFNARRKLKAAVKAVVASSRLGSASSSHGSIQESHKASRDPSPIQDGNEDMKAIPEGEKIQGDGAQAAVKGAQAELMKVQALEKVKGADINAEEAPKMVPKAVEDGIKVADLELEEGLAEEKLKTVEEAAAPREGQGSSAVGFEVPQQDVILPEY

CC(=O)Nc1nc2ccc(-c3cnc(C)c(NC(=O)OC4CCCCC4)c3)cc2s1 [PK68, cyclohexyl (5-(2-acetamidobenzo[d]thiazol-6-yl)-2-methylpyridin-3-yl)carbamate]
Activity% (MRCKa/CDC42BPA; 1 μM): 101.41%
activity at 1 µM (MRCKa/CDC42BPA): 104%
Activity% (MARK4; 1 μM): 101.55%
activity at 1 µM (MARK4): 103%
Activity% (TGFBR2; 1 μM): 114.72%
activity at 1 µM (TGFBR2): 115%
Activity% (DMPK2; 1 μM): 96.42%
activity at 1 µM (DMPK2): 98.3%
Activity% (PKCeta; 1 μM): 90.40%
activity at 1 µM (PKCeta): 92.8%
Activity% (CLK4; 1 μM): 70.07%
activity at 1 µM (CLK4): 71%
Activity% (ALK3/BMPR1A; 1 μM): 103.05%
activity at 1 µM (ALK3/BMPR1A): 105%
Activity% (CHK1; 1 μM): 87.21%
activity at 1 µM (CHK1): 87.3%
Activity% (GRK2; 1 μM): 99.02%
activity at 1 µM (GRK2): 101%
Activity% (WNK3; 1 μM): 106.32%
activity at 1 µM (WNK3): 107%
Activity% (SBK1; 1 μM): 102.75%
activity at 1 µM (SBK1): 104%
Activity% (SIK2; 1 μM): 94.58%
activity at 1 µM (SIK2): 95.5%
Activity% (BRK; 1 μM): 96.14%
activity at 1 µM (BRK): 97.5%
Activity% (CAMK2g; 1 μM): 105.45%
activity at 1 µM (CAMK2g): 107%
Activity% (CAMK4; 1 μM): 84.49%
activity at 1 µM (CAMK4): 84.8%
Activity% (EPHA5; 1 μM): 100.43%
activity at 1 µM (EPHA5): 102%
Activity% (TAK1; 1 μM): 96.74%
activity at 1 µM (TAK1): 97.5%
Activity% (CAMK1d; 1 μM): 100.76%
activity at 1 µM (CAMK1d): 103%
Activity% (ALK6/BMPR1B; 1 μM): 91.83%
activity at 1 µM (ALK6/BMPR1B): 92.5%
Activity% (PIM3; 1 μM): 101.62%
activity at 1 µM (PIM3): 104%
Activity% (CAMK1b; 1 μM): 99.49%
activity at 1 µM (CAMK1b): 101%
Activity% (PAK5; 1 μM): 98.16%
activity at 1 µM (PAK5): 102%
Activity% (FGFR3; 1 μM): 90.12%
activity at 1 µM (FGFR3): 90.5%
Activity% (NEK9; 1 μM): 90.50%
activity at 1 µM (NEK9): 90.9%
Activity% (P38b/MAPK11; 1 μM): 102.60%
activity at 1 µM (P38b/MAPK11): 103%
Activity% (CAMKK1; 1 μM): 111.65%
activity at 1 µM (CAMKK1): 113%
Activity% (KHS/MAP4K5; 1 μM): 75.34%
activity at 1 µM (KHS/MAP4K5): 76.5%
Activity% (VRK2; 1 μM): 93.34%
activity at 1 µM (VRK2): 94.4%
Activity% (PASK; 1 μM): 91.47%
activity at 1 µM (PASK): 93%
Activity% (IKKa/CHUK; 1 μM): 107.86%
activity at 1 µM (IKKa/CHUK): 117%
Activity% (PKCtheta; 1 μM): 97.50%
activity at 1 µM (PKCtheta): 101%
Activity% (ERN1/IRE1; 1 μM): 88.33%
activity at 1 µM (ERN1/IRE1): 88.7%
Activity% (EPHB3; 1 μM): 98.23%
activity at 1 µM (EPHB3): 98.8%
